According to publication PMC5641942 (Physiological Reports, 2017):
Read-outs that look alike come from different tables or passages of the source.

How the values were obtained:
[1] = Intravenous taurine pharmacokinetics in rats; format: in vivo, male Sprague-Dawley rats; details: for A / B / α / β: two-compartment model; for clearance / AUC(0-inf): male, Sprague-Dawley, rat, plasma; for clearance: iv
Method: (§1) The pH was adjusted with NaOH or HCl to 7.40 ± 0.05.
(§2) The animals were acclimatized for a minimum of 5 days in groups of two and maintained on standard feed with free access to water. Prior to dosing, the animals were fasted for 16–20 h with free access to water.
(§3) Plasma was harvested immediately by 10 min of centrifugation at 4°C, 3600g (Multifuge 1 S‐R, Heraeus, Hanau, Germany) and stored in polypropylene tubes (Pony Vial, PerkinElmer, Waltham, MA, USA) at −20°C until analysed. At the end of the experiment, animals were sacrificed by spinal dislocation using a guillotine. Plasma samples were left to defrost and mixed with 4 mL of liquid scintillation cocktail. The samples were counted for 3 min on a scintillation counter from Tri‐Carb 2900TR.
(§4) Based on this V d1, volume of distribution in the central compartment 1; V d2, volume of distribution in the peripheral compartment 2; AUC, area under the curve; and K10, the elimination rate from the central department, were calculated using Phoenix® 6.3 version (Pharsight Corporation, A Certara Company, USA). […] C max and t max were found as mean values of the plasma concentration profiles within each group. Area under the plasma concentration versus time profiles (AUC), an expression of total exposure, were determined with noncompartmental analysis using the linear trapezoidal rule from time zero to C max and by log linear methods from C max to the last measured plasma concentration and denoted AUC0‐tlast, k e is the first order elimination rate constant calculated as the slope from the terminal log plasma concentration time curve of individual animals. The total clearance was calculated as dose divided by AUC.

[2] = Oral taurine pharmacokinetics in rats; format: in vivo, male Sprague-Dawley rats; details: for AUC: read-out: AUC0‐tlast (converted); for k el: read-out: k e (converted)
Method: as §1, §2, §3, §4

TauT [3] = biological target: T1, TauT (Homo sapiens, UniProt P31641); details: pH 6.0, 52 nmol/L taurine
T1 sequence (P31641 1-620): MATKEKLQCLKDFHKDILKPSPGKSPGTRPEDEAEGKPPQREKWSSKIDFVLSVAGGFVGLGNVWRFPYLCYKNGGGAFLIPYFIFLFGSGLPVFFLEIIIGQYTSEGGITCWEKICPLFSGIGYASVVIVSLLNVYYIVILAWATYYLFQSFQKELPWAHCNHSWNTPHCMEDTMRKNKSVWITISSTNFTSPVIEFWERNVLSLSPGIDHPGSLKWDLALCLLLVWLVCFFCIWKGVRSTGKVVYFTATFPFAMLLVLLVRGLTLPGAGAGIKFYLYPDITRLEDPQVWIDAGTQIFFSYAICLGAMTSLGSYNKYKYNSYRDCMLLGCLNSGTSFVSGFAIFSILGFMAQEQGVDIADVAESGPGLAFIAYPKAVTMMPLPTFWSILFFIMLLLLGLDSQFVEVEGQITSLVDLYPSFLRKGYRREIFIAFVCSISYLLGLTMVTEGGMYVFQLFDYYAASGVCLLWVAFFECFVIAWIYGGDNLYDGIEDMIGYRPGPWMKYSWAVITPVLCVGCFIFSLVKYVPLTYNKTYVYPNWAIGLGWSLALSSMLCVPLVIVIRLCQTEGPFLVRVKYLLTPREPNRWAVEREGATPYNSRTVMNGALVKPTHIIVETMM

[4] = Oral taurine pharmacokinetics in rats; format: in vivo; details: male, Sprague-Dawley, rat, plasma, median [Q1, Q3]
[5] = design: method as in Yu et al. 2013; details: beagle dogs, noncompartmental analysis; ref Yu et al. 2013; cited from earlier work
[6] = design: method as in Sved et al. (2007); details: male Sprague-Dawley rats, ref Sved et al. (2007), cited from earlier work
TauT [7] = biological target: T1, TauT; assay: Concentration-dependent taurine uptake in Caco-2 cells at pH 7.4; format: in vitro ADME; design: endogenous in cells; host or cells: Caco-2; details: for K m of saturable taurine uptake: Caco-2, pH 7.4, 0.052–100 μmol/L taurine, 5 min
Method: Polycarbonate membranes (1.12 cm^2, 0.4 μm pore size) of TranswellTM inserts or 24-well cell culture plates (1.90 cm^2) were used as supports for cell cultivation. […] Experiments were performed 6 days after seeding the Caco-2 cells cultured on 24 wells plates or performed 13-15 days postseeding cells on TranswellTM insert. […] The culture medium was changed every 2-3 days. […] HBSS buffer consisted of in mM: […] KCl, 5.33; […] NaCl, 138; […] Nohr et al. 2014b).

[8] = male, Sprague-Dawley, rat, plasma, oral 10 mg/kg
[9] = male, Sprague-Dawley, rat, plasma, oral 30 mg/kg
[10] = male, Sprague-Dawley, rat, plasma, oral 100 mg/kg
[11] = male, Sprague-Dawley, rat, plasma, oral 299 mg/kg
[12] = male, Sprague-Dawley, rat, plasma, oral 997 mg/kg

## NCCS(=O)(=O)O [Taurine, 2‐aminoethane sulfonic acid]
[1]; IV 1 mg/kg
  AUC0‐∞/dose: 89 ± 18.9 μg·min/mL pr. mg/kg
  K10: 0.04 ± 0.01 min⁻¹
  V d1: 0.299 ± 0.048 L/kg
  V d2: 4.608 ± 0.974 L/kg
  A: 3.5 ± 0.5 µg/mL
  B: 0.12 ± 0.03 µg/mL
  α: 0.14 ± 0.02 min⁻¹
  β: 1.9 ± 0.4 1/min *10^−3
  AUC(0-inf): 1.48 µg·h/mL
[1]; IV 10 mg/kg
  AUC0‐∞/dose: 59 ± 19.0 μg·min/mL pr. mg/kg
  K10: 0.06 ± 0.01 min⁻¹
  V d1: 0.353 ± 0.062 L/kg
  V d2: 4.662 ± 1.153 L/kg
  A: 31.0 ± 4.2 µg/mL
  B: 0.89 ± 0.14 µg/mL
  α: 0.144 ± 0.03 min⁻¹
  β: 3.0 ± 0.9 1/min *10^−3
  AUC(0-inf): 9.78 µg·h/mL
[1]; IV 30 mg/kg
  AUC0‐∞/dose: 115 ± 39.2 μg·min/mL pr. mg/kg
  K10: 0.03 ± 0.01 min⁻¹
  V d1: 0.323 ± 0.063 L/kg
  V d2: 8.374 ± 4.466 L/kg
  B: 1.87 ± 0.45 µg/mL
  α: 0.07 ± 0.01 min⁻¹
  β: 1.3 ± 0.6 1/min *10^−3
  AUC(0-inf): 57.5 µg·h/mL
[1]; 1 mg/kg, IV 1 mg/kg, read-out: CL
  clearance: 11.7 ± 1.3 mL/min/kg
[1]; 10 mg/kg, IV 10 mg/kg, read-out: CL
  clearance: 18.7 ± 2.54 mL/min/kg
[1]; 30 mg/kg, IV 30 mg/kg, read-out: CL
  clearance: 9.4 ± 1.42 mL/min/kg
[1]; IV 1–30 mg/kg, compartmental analysis, read-out: clearance
  clearance: 9 to 18 mL/min/kg
[2]; [8]
  Cmax: 2 ± 0.2 µg/mL
  AUC: 3.55 µg·h/mL
  k el: 6.67e-05 s⁻¹
[2]; [9]
  Cmax: 15.7 ± 2.4 µg/mL
  AUC: 18.6 µg·h/mL
  k el: 0.000117 s⁻¹
[2]; [10]
  Cmax: 70 ± 6.5 µg/mL
  AUC: 89.9 µg·h/mL
  k el: 0.000167 s⁻¹
[2]; [11]
  Cmax: 228 ± 16 µg/mL
  AUC: 307 µg·h/mL
  k el: 0.000167 s⁻¹
[2]; [12]
  Cmax: 643 ± 81 µg/mL
  AUC: 1320 µg·h/mL
  k el: 0.00015 s⁻¹
[2]; male, Sprague-Dawley, rat, plasma, oral 997 mg/kg, median [Q1, Q3]
  Tmax: 45 min
[2]; oral 10 mg/kg
  AUC0‐∞/dose: 21 ± 1.3 μg·min/mL pr. mg/kg
[2]; oral 30 mg/kg
  AUC0‐∞/dose: 37 ± 4.5 μg·min/mL pr. mg/kg
[2]; oral 100 mg/kg
  AUC0‐∞/dose: 54 ± 6.0 μg·min/mL pr. mg/kg
[2]; oral 299 mg/kg
  AUC0‐∞/dose: 62 ± 6.7 μg·min/mL pr. mg/kg
[2]; oral 997 mg/kg
  AUC0‐∞/dose: 79 ± 6.7 μg·min/mL pr. mg/kg
TauT [3]
  TauT share of carrier mediated taurine uptake: 78%
[4]; oral 100 mg/kg
  Tmax: 30 min
[4]; oral 299 mg/kg
  Tmax: 30 min
[5]
  clearance: 3.33 mL/min/kg
[6]; oral 30 mg/kg
  AUC: 236 µg·h/mL
[6]; oral 300 mg/kg
  AUC: 1760 µg·h/mL
TauT [7]; Caco-2, pH 7.4
  V max of saturable taurine uptake: 4.6 ± 0.8 pmol/(cm^2·min)
  nonsaturable component, B: 5.7e-08 ± 8e-09 cm/min
TauT [7]
  K m of saturable taurine uptake: 5.6 µM
TauT [7]; listed as taurine
  K m of saturable taurine uptake: 5.6 ± 2.6 µM
